Experimental findings from patent EP0521963B1, “CRF ANALOGS” (THE SALK INSTITUTE FOR BIOLOGICAL STUDIES, priority 1990, dated 1998) are described below.

pEC50: −log10 of the molar value.

In the experiment the test system is cultured rat pituitary cells. Put plainly: Stimulation of secretion of ACTH and β-endorphin by cultured rat pituitary cells (procedure of Endocrinology, 91, 562 (1972)). The settings on record: compared against synthetic oCRF, read-out: Half-maximal responses. Format: cell-based. The text has this: This synthetic peptide is examined for its effects on the secretion of ACTH and β-endorphin in vitro and also in vivo.

With `CC[C@H](C)[C@H](NC(=O)[C@H](CC(=O)O)NC(=O)[C@H](CC(C)C)NC(=O)[C@H](CC(C)C)NC(=O)[C@H](CCCCN)NC(=O)[C@H](CCCNC(=N)N)NC(=O)[C@H](CC(N)=O)NC(=O)[C@H](CO)NC(=O)[C@H](Cc1c[nH]cn1)NC(=O)[C@H](C)NC(=O)[C@H](CCC(N)=O)NC(=O)[C@H](CCC(N)=O)NC(=O)[C@H](C)NC(=O)[C@H](CC(C)C)NC(=O)[C@H](CCC(N)=O)NC(=O)[C@H](CC(=O)O)NC(=O)[C@H](C)NC(=O)[C@H](CCCCN)NC(=O)[C@@H](NC(=O)[C@H](CCSC)NC(=O)[C@H](CCC(=O)O)NC(=O)[C@H](CC(C)C)NC(=O)[C@@H](NC(=O)[C@H](CCC(=O)O)NC(=O)[C@H](CCCNC(=N)N)NC(=O)[C@H](CC(C)C)NC(=O)[C@H](CC(C)C)NC(=O)[C@H](Cc1c[nH]cn1)NC(=O)[C@H](Cc1ccccc1)NC(=O)[C@@H](NC(=O)[C@H](CC(C)C)NC(=O)[C@H](CC(=O)O)NC(=O)[C@H](CC(C)C)NC(=O)[C@H](CO)NC(=O)[C@@H](NC(=O)[C@@H]1CCCN1C(=O)[C@@H]1CCCN1C(=O)[C@H](CCC(=O)O)NC(=O)[C@H](CCC(N)=O)NC(=O)[C@@H](N)CO)[C@@H](C)CC)[C@@H](C)O)C(C)C)[C@@H](C)O)C(=O)N[C@@H](C)C(N)=O` [oCRF], the pEC50 was around 9.60.
